The test system of one data set is dog hepatocytes. As to the kind of experiment: Metabolite identification in dog hepatocyte incubations. The class given is in vitro ADME. To be noted: for % of the total MS area, Dog Hepatocytes (Mixed gender): Cmpd 28 incubated for 120 min, 4 μM. The method, then: (§1) Cryopreserved, pooled primary human, dog, and rat hepatocytes were obtained from BioIVT (previously Celsis IVT). L-15 Leibovitz buffer was placed in a water bath to reach 37 °C. Cryopreserved hepatocytes were transferred from a −150 °C freezer on dry ice and immediately immersed in a preheated water bath kept at 37 °C for thawing. When only a small ice crystal could be seen, the content was emptied into a 50 mL falcon tube filled with warm buffer (maximum four vials/falcon tube). The suspension was centrifuged at room temperature for 3 min at 50 g. The supernatant was removed, the pellet was resuspended in a small volume of buffer, and the falcon tube was refilled with buffer, followed by another centrifugation to wash away any remaining storage buffer. Thereafter, the supernatant was removed, and the pellet was dissolved in a small volume of buffer and diluted to a concentration of about 3–5 million cells/mL. After counting the cells using a Casy cell counter, the suspension was diluted to 1 million viable cells/mL and kept at room temperature until use. The viability cutoff was 80%.
(§2) An aliquot of 245 μL of hepatocyte suspension was added to a round-bottomed 96-deep-well plate using a manual multipipette. The deep-well plate was preincubated for 15 min at 37 °C and 13 Hz. Substrate solutions of the assay compounds were prepared by the robot in a 96-well plate as follows: 4 μL of 10 mM DMSO stock solution, followed by the addition of 96 μL of ACN:water (1:1, v:v) and mixing by shaking. 50 μL from each well were transferred to and combined in a new plate, resulting in 100 μL per well and a dilution of 1:1.
(§3) The reaction was started by the addition of 5 μL of 200 μM substrate solution to the preheated hepatocyte suspension, resulting in a final substrate concentration of 4 μM (0.04% DMSO, <0.5% ACN). The incubation was continued at 37 °C and 13 Hz. At each time point (0, 40, and 120 min), a 50 μL sample was taken out and quenched in 200 μL of cold ACN:methanol (1:1, v:v), and the stopped plates were centrifuged for 20 min (set at 4 °C and 4000 g). The supernatant was diluted by taking 50 μL and mixing it with 100 μL of water. Incubations of the positive controls, albendazole and dextromethorphan, were performed in parallel as described above.
(§4) Structural characterization of metabolites and metabolite profiling were performed using the Waters Acquity ultraperformance liquid chromatography (UPLC) system fitted to a Waters High-Resolution Mass Spectrometer (MS) (Xevo G2-S, Synapt G2-Si, or a Synapt XS MS). The Waters MS systems, equipped with an electrospray ionization (ESI) source, were operated in positive-ion sensitivity mode over a mass range m/z 50–1200 and in negative-ion sensitivity mode over a mass range m/z of 50–1200.
(§5) The reversed-phase gradient elution was performed on an Acquity U(H)-PLC BEH C18 column (2.1 × 100 mm, 1.7 μm, Waters) set at 45 °C. The mobile phases consisted of 0.1% FA in water (A) and ACN (B). […] The injection volume was 2 μL. The MS settings were optimized for the respective MS instrument. […] A scan time of 0.1 s was used, and data were acquired in centroid mode. Collision energy was set to “off” for the low-energy function, whereas in the high-energy MSe functions, the collision energies were typically ramped from 15 to 35 V in the trap cell, with constant collision energies of 20 V in their transfer cells. Cone voltage was set to 25 V for both low- and high-energy functions. For dedicated MS/MS, the m/z of the molecular ion was selected in the quadrupole, and the mass range for fragmentation analysis was typically set between 50 and 1200. The collision energies were either the same as those stated above for MSe data generation or optimized for a specific metabolite.

Data set [1] is described as follows: MetID on in vivo dog samples (plasma, urine). Further details: species or system dog (beagles). The note with it: for % of the total MS area, Dog Plasma (Female): sampled at 3 h and 30 min. Here is the method: (§6) The workup procedure could vary somewhat depending on the compound and dose, but the general procedure was as follows: Two volumes of ACN/methanol (1:1, v:v) were added to the plasma samples and vortex-mixed to precipitate the proteins. Thereafter, the samples were centrifuged for 10 min (at 10,000 g and 4 °C), and the supernatants were diluted with one volume of water. The urine samples were diluted with one volume of ACN/methanol (1:1, v:v) and centrifuged for 10 min (at 10,000 g and 4 °C), followed by a 1:1 dilution with water.
as §4
(§7) The reversed-phase gradient elution was performed on an Acquity U(H)-PLC BEH C18 column (2.1 × 100 mm, 1.7 μm, Waters) set at 45 °C. The mobile phases consisted of 0.1% FA in water (A) and ACN (B). […] The injection volume was 2 μL. The MS settings were optimized for the respective MS instrument. […] A scan time of 0.1 s was used, and data were acquired in centroid mode. Collision energy was set to “off” for the low-energy function, whereas in the high-energy MSe functions, the collision energies were typically ramped from 15 to 35 V in the trap cell, with constant collision energies of 20 V in their transfer cells. Cone voltage was set to 25 V for both low- and high-energy functions. For dedicated MS/MS, the m/z of the molecular ion was selected in the quadrupole, and the mass range for fragmentation analysis was typically set between 50 and 1200. The collision energies were either the same as those stated above for MSe data generation or optimized for a specific metabolite. Tune parameters for all MS analyses consisted of a capillary energy of 0.5 kV, sampling cone energy of 40 V, source temperature of 150 °C, desolvation temperature of 550 °C, cone gas flow of 0 L/h, desolvation gas flow of 1200 L/h, and nebulizer pressure of 6.5 bar.
(§8) Metabolite identification was conducted by processing the generated data using the MetaboLynx XS browser (Waters), MassMetaSite and the web interface ONIRO (Mass Analytica). […] Accurate masses of metabolites were determined from the protonated molecules in the positive ESI time-of-flight MS (ESI–TOF–MS) mode and from the deprotonated molecules in the negative ESI–TOF–MS mode. […] For those metabolites where no MS/MS data could be acquired, identification was based on the accurate mass of the molecular ion and the fragmentation seen in the MSe spectrum. Relative amounts of detected metabolites were calculated as % of the total MS area by dividing the MS peak area for the metabolite (or parent compound) by the combined MS peak area for the parent compound and all identified metabolites.

Data set [2] concerns human hepatocytes. Briefly: Metabolic stability in human hepatocytes (HH CLint). Type of data set: in vitro ADME. The note with it: 37 °C, 2 h. The method, then: Metabolic stability in human hepatocytes (HH CLint) was measured by incubating the cells with the test compound at 37 °C for 2 h. An aliquot of the mixture was taken at typically nine defined time points, and the metabolic reaction was stopped by adding ACN. The samples were centrifuged, and the supernatant was analyzed via LC-MS/MS. Intrinsic clearance (CLint) was calculated from the disappearance rate of the parent compound. ,

Data set [3] concerns human hepatocytes. As to the kind of experiment: Metabolite identification in human hepatocyte incubations. The class given is in vitro ADME. The note with it: 4 μM. The method, then: as §1, §2, §3, §4, §5
Another data set deals with rat hepatocytes. As to the kind of experiment: Metabolite identification in rat hepatocyte incubations. The class given is in vitro ADME. To be noted: Cmpd 28 incubated for 120 min, 4 μM. The method, then:
as §1, §2
The reaction was started by the addition of 5 μL of 200 μM substrate solution to the preheated hepatocyte suspension, resulting in a final substrate concentration of 4 μM (0.04% DMSO, <0.5% ACN). The incubation was continued at 37 °C and 13 Hz. At each time point (0, 40, and 120 min), a 50 μL sample was taken out and quenched in 200 μL of cold ACN:methanol (1:1, v:v), and the stopped plates were centrifuged for 20 min (set at 4 °C and 4000 g). […]

A short description of data set [4]: MetID on in vivo rat plasma samples. Further details: species or system rat (Han Wistar). The method, then:
as §6, §4, §7, §8

Where [5] appears, read: dog hepatocytes, incubated for 120 min.
[6] abbreviates: after Cmpd 16, semiquantitative.

In the case of `CN(C(=O)c1ccc(C#N)cc1)C(CN1CC(O)C1)c1ccccc1` (stereo not drawn) [Cmpd 55, CN(C(=O)c1ccc(C#N)cc1)[C@H](CN1CC(O)C1)c1ccccc1], the “N-oxide, % of the total MS area” value is “no N-oxidation was seen” in the data set on dog hepatocytes (setting [5]); “not observed” in data set [1] (dog plasma, sampled at 60 min); “not observed” in data set [1] (dog urine, sampled at 7–24 h). Moreover, the “Parent, % of the total MS area” value in the data set with dog hepatocytes (setting [5]) came to 97%; in data set [1] (dog plasma, sampled at 60 min) it was 49%; in data set [1] (dog urine, sampled at 7–24 h), 61%.
Consider `COc1ccc(-c2nnc(C(=O)N3CC(Oc4ccc(CN(C)C)c(C)c4)C3)o2)cc1` [Cmpd 67, COc1ccc(-c2nnc(C(=O)N3CC(Oc4ccc(CN(C)C)c(C)c4)C3)o2)cc1], for which the “HH CLint” value in the data set on human hepatocytes [2] was 16 μL/min/1E6. Also, the “Metabolites / metabolic pathways identified” value in the data set on human hepatocytes [3] was “N- and O-demethylation are major metabolic pathways”.
With `O=C(O)[C@H]1OC(OC(=O)[C@@H]2CCCC[C@H]2C(=O)c2ccc(-c3cc[nH]n3)cc2)[C@H](O)[C@@H](O)[C@@H]1O` (stereo partly drawn) [Cmpd 16 M13], the “% of the total MS area, Dog Plasma (Female)” value in data set [1] (setting [6]) was determined as 0.5%.
Regarding `Cc1cc(-c2ccc(C(=O)[C@@H]3CCCC[C@H]3C(=O)O)cc2)n[nH]1` [Cmpd 28 M1], the “% of the total MS area, Dog Hepatocytes (Mixed gender)” value in the data set with dog hepatocytes was determined as 4%. Further, the “% of the total MS area, Rat Hepatocytes (Mixed gender)” value in the data set with rat hepatocytes was “no detection”. In data set [1] (after Cmpd 28), the “% of the total MS area, Dog Plasma (Female)” value came to 12%. Moreover, in data set [4] (after Cmpd 28, sampled at 4 h), the “% of the total MS area, Rat Plasma (Female)” value amounted to 18% and the “% of the total MS area, Rat Plasma (Male)” value worked out at 17%.
In the case of `CC(C)C(CN1CC(O)C1)N(C)C(=O)c1ccc(Cl)cc1` (stereo not drawn) [Cmpd 50, CC(C)[C@@H](CN1CC(C1)O)N(C)C(=O)c2ccc(cc2)Cl], the “Parent, % of the total MS area” value with dog hepatocytes (setting [5]) is 73%; in data set [1] (dog plasma, sampled at 60 min) it was over 99%; in data set [1] (dog urine, sampled at 7–24 h), 10%. Besides, in data set [1] (dog plasma), the “Metabolites detected in plasma” value is given as “No metabolites”.
As to `CCCC(CN1CC(O)C1)N(C)C(=O)c1ccc(Cl)cc1` (stereo not drawn) [Cmpd 51, CCC[C@@H](CN1CC(O)C1)N(C)C(=O)c1ccc(Cl)cc1], the “Parent, % of the total MS area” value is given as 80% in the data set with dog hepatocytes (setting [5]); 20% in data set [1] (dog plasma, sampled at 60 min); 22% in data set [1] (dog urine, sampled at 7–24 h). Moreover, the “N-oxide, % of the total MS area” value in data set [1] (dog plasma, sampled at 60 min) is recorded as “not observed”; in data set [1] (dog urine, sampled at 7–24 h) it was “not observed”.
`O=C(Nc1c[nH]nc1C(F)(F)F)[C@@H]1CCCC[C@H]1C(=O)c1ccc(-c2cc[nH]n2)cc1` [Cmpd 16 M12]: the “% of the total MS area, Dog Plasma (Female)” value in data set [1] (setting [6]) was 2%. Besides, the “% of the total MS area, Rat Plasma (Female)” value in data set [4] (after Cmpd 16, oral, sampled at 60 min) is reported as 2%.
For the compound `CN(C(=O)c1ccc(Cl)cc1)C(CN1CC(O)C1)C1CC1` (stereo not drawn) [Cmpd 47, CN(C(=O)c1ccc(Cl)cc1)[C@H](CN1CC(O)C1)C1CC1], the “Parent, % of the total MS area” value in the data set on dog hepatocytes (setting [5]) came to 83%; in data set [1] (dog plasma, sampled at 30 min), 5%; in data set [1] (dog urine, sampled at 7–24 h), 5%.
As for `Cc1nn(C)cc1NC(=O)[C@@H]1CCCC[C@H]1C(=O)c1ccc(-c2cc(CO)[nH]n2)cc1` [Cmpd 28 M4], the “% of the total MS area, Dog Hepatocytes (Mixed gender)” value in the data set with dog hepatocytes is 2%. In the data set on rat hepatocytes, the “% of the total MS area, Rat Hepatocytes (Mixed gender)” value is reported as 3%. Moreover, the “% of the total MS area, Dog Plasma (Female)” value in data set [1] (after Cmpd 28) is reported as 1%. In data set [4] (after Cmpd 28, sampled at 4 h), the “% of the total MS area, Rat Plasma (Female)” value was “not seen” and the “% of the total MS area, Rat Plasma (Male)” value is reported as “not seen”.

(Values after publication PMC12587390, “Metabolite Identification Data in Drug Discovery, Part 1: Data Generation and Trend Analysis” (Molecular Pharmaceutics, 2025).)
